Assay results published in patent publication US8349877B2, “Ternary fungicidal compositions comprising boscalid and chlorothalonil” (BASF SE, priority 2007, dated 2013).
Where two headings read alike, the source gives them in different places.

Key:
Pyricularia oryzae = assay type: cell-based; conditions: 7 days after inoculation
Alternaria solani = conditions: 4 ppm; 7 days after inoculation
Colleotrichum truncatum = test: Activity against Colleotrichum truncatum in the microtiterplate test; assay type: cell-based; conditions: 168 h, read-out: Observed efficacy
Fusarium culmorum = test: Activity against Fusarium culmorum in the microtiterplate test; assay type: cell-based; conditions: 0.063 ppm; 7 days after inoculation
[1] = 4 ppm, 7 days after inoculation

`Fc1ccc([C@]2(Cn3cncn3)O[C@H]2c2ccccc2Cl)cc1` (racemic) [Epoxiconazol, (2RS,3SR)-1-[3-(2-chlorophenyl)-2,3-epoxy-2-(4-fluorophenyl)propyl]-1H-1,2,4-triazole] was tested, and the Observed efficacy (Pyricularia oryzae; 0.063 ppm) was 4% and the Observed efficacy (Pyricularia oryzae; 1 ppm) was 40%.

`CC(C)OC(=O)N[C@H](C(=O)N[C@H](C)c1nc2ccc(F)cc2s1)C(C)C` [Benthivalicarb, isopropyl {(S)-1-[(1R)-1-(6-fluorobenzothiazol-2-yl)-ethylcarbamoyl]-2-methylpropyl}carbamate] was tested, and the Observed efficacy (Alternaria solani) was 0% and the inhibition of growth at 4 ppm (Colleotrichum truncatum) was 0%.

In the case of `O=C1C2CC=CCC2C(=O)N1SC(Cl)(Cl)Cl` (stereo not drawn) [Captan, N-(trichloromethylthio)cyclohex-4-ene-1,2-dicarboximide], the inhibition of growth at 1 ppm (Colleotrichum truncatum; 7 days after inoculation) is reported as 49%.

For `CO/N=C(/C1=NOCCO1)c1ccccc1Oc1ncnc(Oc2ccccc2Cl)c1F` [Fluoxastrobin, (E)-{2-[6-(2-chlorophenoxy)-5-fluoropyrimidin-4-yloxy]phenyl}(5,6-dihydro-1,4,2-dioxazin-3-yl)methanone O-methyloxime], the inhibition of growth at 1 ppm (Colleotrichum truncatum; 7 days after inoculation) was 32%.

In the case of `CC(C)NC(=O)N1CC(=O)N(c2cc(Cl)cc(Cl)c2)C1=O` [Iprodion, N-isopropyl-3-(3,5-dichlorophenyl)-2,4-dioxoimidazolidine-1-carboxamide], the inhibition of growth at 1 ppm (Colleotrichum truncatum; 7 days after inoculation) is reported as 7%.

`CC1(C)CCC(Cc2ccc(Cl)cc2)C1(O)Cn1cncn1` (stereo not drawn) [Metconazol, 5-(4-chlorobenzyl)-2,2-dimethyl-1-[1,2,4]triazol-1-ylmethylcyclopentanol] gave an Observed efficacy (Pyricularia oryzae; 0.063 ppm) of 0%, an Observed efficacy (Pyricularia oryzae; 0.25 ppm) of 5% and an Observed efficacy (Fusarium culmorum) of 31%.

`COC=C(C(=O)OC)c1ccccc1COc1cccc(C(F)(F)F)n1` [Picoxystrobin, methyl 3-methoxy-2-[2-(6-trifluoromethylpyridin-2-yloxymethyl)phenyl]-acrylate] showed an inhibition of growth at 0.25 ppm (Colleotrichum truncatum; 0.25 ppm, 7 days after inoculation) of 32%.

`Cc1cc(C)nc(Nc2ccccc2)n1` [Pyrimethanil, 4,6-dimethylpyrimidin-2-ylphenylamine] was tested, and the inhibition of growth at 4 ppm (Colleotrichum truncatum; [1]) was 7%.

Compound `CC(C)(C)C(O)(CCc1ccc(Cl)cc1)Cn1cncn1` (stereo not drawn) [Tebuconazole, 1-(4-chlorophenyl)-4,4-dimethyl-3-[1,2,4]triazol-1-ylmethylpentan-3-ol] has an Observed efficacy (Alternaria solani) of 0% and an inhibition of growth at 4 ppm (Colleotrichum truncatum; [1]) of 0%.

`CC1(C)CC/C(=C\c2ccc(Cl)cc2)C1(O)Cn1cncn1` (stereo not drawn) [Triticonazol, (5E)-5-[(4-chlorophenyl)methylene]-2,2-dimethyl-1-(1H-1,2,4-triazol-1-ylmethyl)cyclopentanol] gave an inhibition of growth at 1 ppm (Colleotrichum truncatum; 7 days after inoculation) of 7%.
